Where two headings read alike, the source gives them in different places.
Legend:
[1] = Cytotoxicity determination (CCK-8, without addition of virus); format: cell-based; conditions: human, HEp-2 cells (uninfected), no virus, Table C = greater than 100 μM, Table D = equal to or less than 100 μM and greater than 10 μM
Procedure: CPE reduction assays are performed as described by Sidwell and Huffman et al., Appl. Microbiol. (1971) 22(5):797-801 with slight modifications. HEp-2 cells (ATCC#, CCL-23) are seeded at a density of 1,500 cells/30 μL/well into the 384-well cell plate(s) (Corning#3701) one day prior to the assay. Compounds are added into 384-well cell plates by Labcyte POD 810 Plate Assembler system. Each of the test compounds is provided to duplicate wells of a 384-well cell plate at final concentrations starting from 100 μM or 1 μM using 1/3 stepwise dilutions for 9 points. Quick-thaw Respiratory Syncytial Virus (RSV) long strain (ATCC#VR-26) stock in a 37° C. water bath. Place on ice until ready to use. Viruses are diluted to the concentration of 100 TCID50/30 μL with medium and 30 μl diluted RSV are added into related wells of 384-well cell plates. For each plate, sixteen wells are set aside as uninfected, untreated cell controls (CC), and nine wells per test plate receive virus only as a control for virus replication (VC). The final DMSO concentration of all wells is 1%. Place the plates at 37° C., 5% CO2 for 5 days.
In order to determine the compound cytotoxicity, in parallel, each of the compounds is applied to duplicate wells in a 384-well cell plate at serial final concentrations starting from 100 μM using ½ stepwise dilutions for 7 points without addition of virus. Incubate the cells at 37° C., 5% CO2 for 5 days. Add 6 μL CCK-8 into each well and incubate in a CO2 incubator at 37° C. for 3-4 h. Read the plates to obtain the optical densities which are used to calculate 50% cytotoxicity concentration (CC50).

recombinant RSV complex = recombinant RSV complex (Human respiratory syncytial virus A, UniProt P28887); assay: RSV polymerase inhibition assay; format: biochemical; conditions: 2 h at 30° C., Table E = <1 μM, Table F = <50 μM
recombinant RSV complex, sequence (P28887 whole entry): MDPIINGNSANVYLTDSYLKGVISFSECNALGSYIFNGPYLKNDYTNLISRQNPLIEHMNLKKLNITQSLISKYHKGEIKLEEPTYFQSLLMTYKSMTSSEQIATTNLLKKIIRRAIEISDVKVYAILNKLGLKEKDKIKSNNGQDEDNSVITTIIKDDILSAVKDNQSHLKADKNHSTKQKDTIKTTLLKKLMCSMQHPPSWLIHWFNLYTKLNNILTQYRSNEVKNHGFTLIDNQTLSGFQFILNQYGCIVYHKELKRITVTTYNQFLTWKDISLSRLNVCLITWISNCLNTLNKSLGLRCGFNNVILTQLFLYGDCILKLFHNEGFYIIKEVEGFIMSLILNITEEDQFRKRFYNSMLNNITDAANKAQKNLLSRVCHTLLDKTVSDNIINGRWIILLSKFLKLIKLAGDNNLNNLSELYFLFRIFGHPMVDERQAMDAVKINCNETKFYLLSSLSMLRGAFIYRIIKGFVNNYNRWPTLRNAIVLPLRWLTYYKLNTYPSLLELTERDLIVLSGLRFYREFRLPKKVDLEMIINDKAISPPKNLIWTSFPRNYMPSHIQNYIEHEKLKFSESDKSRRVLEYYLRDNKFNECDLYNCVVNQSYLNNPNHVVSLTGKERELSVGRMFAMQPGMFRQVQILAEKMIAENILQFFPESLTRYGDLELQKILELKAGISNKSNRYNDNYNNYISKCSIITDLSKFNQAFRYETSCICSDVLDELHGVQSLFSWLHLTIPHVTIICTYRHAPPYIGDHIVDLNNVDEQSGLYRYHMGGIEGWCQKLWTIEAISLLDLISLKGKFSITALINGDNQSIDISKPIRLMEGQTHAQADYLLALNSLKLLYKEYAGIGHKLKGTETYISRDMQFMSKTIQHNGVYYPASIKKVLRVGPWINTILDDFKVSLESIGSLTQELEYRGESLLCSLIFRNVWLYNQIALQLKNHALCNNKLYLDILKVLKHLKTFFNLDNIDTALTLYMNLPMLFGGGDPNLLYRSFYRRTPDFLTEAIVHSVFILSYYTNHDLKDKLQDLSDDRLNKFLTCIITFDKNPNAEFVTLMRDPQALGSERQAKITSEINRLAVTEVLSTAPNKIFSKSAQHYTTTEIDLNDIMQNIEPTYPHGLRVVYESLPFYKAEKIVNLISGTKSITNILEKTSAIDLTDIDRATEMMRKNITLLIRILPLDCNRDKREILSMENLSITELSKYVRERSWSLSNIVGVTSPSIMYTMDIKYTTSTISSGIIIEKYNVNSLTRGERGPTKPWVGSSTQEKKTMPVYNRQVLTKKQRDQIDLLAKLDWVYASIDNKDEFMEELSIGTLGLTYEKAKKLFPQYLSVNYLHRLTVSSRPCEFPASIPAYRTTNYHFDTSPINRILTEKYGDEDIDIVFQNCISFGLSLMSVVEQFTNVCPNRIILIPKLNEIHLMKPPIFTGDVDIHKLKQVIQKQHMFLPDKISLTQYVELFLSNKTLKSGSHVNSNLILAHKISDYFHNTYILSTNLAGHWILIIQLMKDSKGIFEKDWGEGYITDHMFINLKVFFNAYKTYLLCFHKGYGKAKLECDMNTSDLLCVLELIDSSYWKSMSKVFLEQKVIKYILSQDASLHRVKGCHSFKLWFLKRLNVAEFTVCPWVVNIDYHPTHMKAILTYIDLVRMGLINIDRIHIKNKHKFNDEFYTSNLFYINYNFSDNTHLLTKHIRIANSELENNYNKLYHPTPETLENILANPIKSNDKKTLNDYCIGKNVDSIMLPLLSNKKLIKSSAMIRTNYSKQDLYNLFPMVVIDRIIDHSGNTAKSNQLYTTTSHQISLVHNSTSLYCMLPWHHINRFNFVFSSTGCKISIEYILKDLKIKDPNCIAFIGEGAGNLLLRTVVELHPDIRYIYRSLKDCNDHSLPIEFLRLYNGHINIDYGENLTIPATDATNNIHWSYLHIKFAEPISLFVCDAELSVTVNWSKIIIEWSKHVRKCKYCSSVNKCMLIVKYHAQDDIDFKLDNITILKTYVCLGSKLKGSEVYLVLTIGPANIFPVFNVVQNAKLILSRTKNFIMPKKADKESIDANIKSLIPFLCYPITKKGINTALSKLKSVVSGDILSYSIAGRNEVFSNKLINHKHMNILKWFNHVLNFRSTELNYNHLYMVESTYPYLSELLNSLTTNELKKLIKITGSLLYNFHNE
recombinant RSV complex, sequence (P03421 whole entry, further chain): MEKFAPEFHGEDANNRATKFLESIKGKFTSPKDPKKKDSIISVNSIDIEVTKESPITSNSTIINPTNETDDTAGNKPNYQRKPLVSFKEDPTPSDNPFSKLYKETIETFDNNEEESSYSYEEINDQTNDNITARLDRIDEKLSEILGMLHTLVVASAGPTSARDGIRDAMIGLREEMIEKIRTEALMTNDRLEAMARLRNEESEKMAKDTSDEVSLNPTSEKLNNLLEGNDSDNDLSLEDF
Procedure: Standard RSV polymerase assays were conducted in the presence of 10 nM recombinant RSV complex in a reaction buffer containing Tris-HCl pH7.5, 6 mM MgCl2, and other additives and substrates including RNA oligonucleotides and radionucleotides. Standard reactions were incubated in 96-well plate format for 2 h at 30° C., in the presence of increasing concentration of inhibitor. The reaction was stopped with 90 μL of 0.1M EDTA, and the reaction product was transferred to a “reading” 96-well plate. After washing of the plate, radiolabeled RNA products were detected according to standard procedures with a Trilux Topcount scintillation counter. The compound concentration at which the enzyme-catalyzed rate was reduced by 50% (IC50) was calculated by fitting the data to a non-linear regression (sigmoidal).

[2] = tested on: RSV subgenomic replicon 395 HeLa and APC126; assay: RSV subgenomic replicon assay (Renilla luciferase); format: cell-based; conditions: human respiratory syncytial virus; RSV replicon cells (395 HeLa 7 days or APC126 3 days); Table G = less than 1 μM, Table H = equal to or higher than 1 μM and less than 50 μM
Description: The RSV subgenomic replicon 395 HeLa and APC126 were licensed from Apath (Brooklyn, N.Y.) and were originally developed by Dr. Mark Meeples of Center for Vaccines & Immunity, the Research Institute at Nationwide Children's Hospital in Columbus, Ohio. To generate subgenomic RSV replicon, three glycoprotein genes, those for SH, G, and F, from a full-length recombinant GFP-expressing (rg) RSV antigenomic cDNA were deleted. In their place, a blasticidin S deaminase (bsd) gene was inserted. Through multiple steps, the RSV replicon was established in HeLa cells (395 Hela) or BHK cells (APC126). Both 395 HeLa and APC126 cells were cultured in Dulbecco's Modified Eagle Medium (DMEM) containing 4500 mg/L D-glucose, L-glutamine, and 110 mg/L sodium pyruvate (Invitrogen, Cat. #11995-040). The medium was further supplemented with 10% (v/v) fetal bovine serum (FBS) (Mediatech, Cat. #35-010-CV), 1% (v/v) penicillin/streptomycin (Mediatech, Cat. #30-002-CI), and 10 μg/mL of Blasticidin (BSD) (Invivogen, Cat. code ant-bl-1). Cells were maintained at 37° C. in a humidified 5% CO2 atmosphere.
Determination of 50% inhibitory concentration (EC50), 90% inhibitory concentration (EC90) and 50% cytotoxic concentration (CC50) in RSV replicon cells were performed by the following procedure. On the first day, 5000 RSV replicon cells per well were plated in a 96-well plate. On the following day, compounds to be tested were solubilized in 100% DMSO to 100X the desired final testing concentration. Each compound was serially diluted (1:3) up to 9 distinct concentrations. Compounds in 100% DMSO were reduced to 10% (v/v) DMSO by diluting 1:10 in cell culture media. A 10 μL sample of the compounds diluted to 10% (v/v) DMSO with cell culture media was used to treat the RSV replicon cells in 96-well format. The final DMSO concentration was 1% (v/v). Cells were incubated with compounds for 7 days (for 395Hela) or 3 days (for APC126) at 37° C. in a 5% CO2 atmosphere. In each assay, positive control that was previously characterized in the RSV replicon assay was included.
The Renilla Luciferase Assay System (Promega, Cat. #E2820) was used to measure anti-RSV replicon activity. Assay plates were set up as stated above. Luminescence was recorded using a Perkin Elmer multilabel counter Victor3V. EC50, the concentration of the drug required for reducing RSV replicon RNA by 50% in relation to the untreated cell control value, was calculated from the plot of percentage reductions of the […] against the drug concentrations using the Microsoft Excel forecast function.

[3] = 10 nM recombinant RSV complex, read-out: IC50
[4] = IC50, 10 nM recombinant RSV complex

SMILES	CC50 at 5 days [1] [µM]	IC50 (recombinant RSV complex; [3]) [µM]	EC50 [2] [µM]	IC50 (recombinant RSV complex; [4]) [µM]
COc1cc(C(=O)NC[C@@](O)(c2cc3c(c(-c4ccc(F)cc4)n2)NC[C@@]3(C)N)C(F)(F)F)ccc1OC[C@@H](C)O [Compound 69]	10 to 100	< 1	< 1	
COc1cc(C(=O)NCC(O)(c2cc3c(c(-c4ccc(F)cc4)n2)OCC3(C)N)C(F)(F)F)ccc1OC(C)CO (stereo not drawn) [Compound 21]	10 to 100	< 1	< 1	
C[C@@]1(N)CNc2c1cc([C@](O)(CNC(=O)c1cc(OCCO)c3ncccc3c1)C(F)(F)F)nc2-c1ccc(F)cc1 [Compound 81]	10 to 100	< 1	< 1	
C[C@@]1(N)COc2c1cc([C@](O)(CNC(=O)c1cc3c(c(OC(F)F)c1)NC(=O)C3)C(F)(F)F)nc2-c1ccc(F)cc1 [Compound 98]	10 to 100	< 1	< 1	
CC1(N)COc2c1cc(C(O)(CNC(=O)c1ccc(CCO)c(OC3CC3)c1)C(F)(F)F)nc2-c1ccc(F)cc1 (stereo not drawn) [Compound 49]	10 to 100	< 1	< 1	
COc1cc(C(=O)NC[C@@](O)(c2cc3c(c(-c4ccc(F)cc4)n2)OC[C@@]3(C)NC(N)=O)C(F)(F)F)ccc1OC[C@@H](C)O [Compound 132]	10 to 100	< 1	< 1	
C[C@@H](O)COc1cc(C(=O)NCC(O)(c2cc(C(C)(C)N)cc(-c3ccc(F)cc3)n2)C(F)(F)F)ccc1OC1CC1 (stereo partly drawn) [Compound 38]	10 to 100		< 1	< 1
COc1cc(OCCO)cc(C(=O)NC[C@@](O)(c2cc3c(c(-c4ccc(F)cc4)n2)OC[C@@]3(C)N)C(F)(F)F)c1 [Compound 68]	10 to 100	< 1	< 1	
COc1cc(C(=O)NCC(O)(c2cc(C3CCNCC3)cc(-c3ccc(F)cc3)n2)C(F)(F)F)ccc1OCCO (stereo not drawn) [Compound 18]	10 to 100	< 1	< 1	
COc1cc(C(=O)NCC(O)(c2cc3c(c(-c4ccc(F)cc4)n2)OCCC3(C)N)C(F)(F)F)ccc1OCC(C)O (single isomer, unassigned) [Compound 86]	10 to 100	< 1	1 to 50	
COc1cc(C(=O)NC[C@@](O)(c2cc3c(c(-c4ccc(F)cc4)n2)OC[C@@]3(C)N)C(F)(F)F)cc2ccc(C(C)(C)O)nc12 [Compound 90]	10 to 100	< 1	< 1	
COc1cc(C(=O)NC[C@](O)(c2cc3c(c(-c4ccc(F)cc4)n2)OC[C@]3(N)C2CC2)C(F)(F)F)ccc1OC[C@@H](C)O (single isomer, unassigned) [Compound 107]	10 to 100	< 50	1 to 50	
COc1cc(C(=O)NCC(O)(c2cc3c(c(-c4ccc(F)cc4)n2)OCC3(N)CO)C(F)(F)F)cc2cc[nH]c12 (stereo not drawn) [Compound 102]	10 to 100	< 1	1 to 50	
COc1cc(C(=O)NC[C@@](O)(c2cc3c(c(-c4ccc(F)cc4)n2)OC[C@@]3(C)N)C(F)(F)F)ccc1OCC(C)=O [Compound 121]	10 to 100	< 1	< 1	
COc1cc(C(=O)NC[C@@](O)(c2cc3c(c(-c4ccc(F)cc4)n2)NC[C@@]3(C)N)C(F)(F)F)ncc1OCCO [Compound 75]	10 to 100	< 1	< 1	
CC(C)(N)c1cc(-c2ccc(F)cc2)nc(C(N)(CNC(=O)c2ccc(OC3CC3)c(OCCO)c2)C(F)(F)F)c1 (stereo not drawn) [Compound 41]	10 to 100	< 1	< 1	
COc1cc(C(=O)NC[C@@](O)(c2cc3c(c(-c4ccc(F)cc4)n2)OC[C@@]3(C)N)C(F)(F)F)cc2ccc(CO)nc12 [Compound 84]	10 to 100	< 1	< 1	
C[C@@]1(N)CNc2c1cc([C@](O)(CNC(=O)c1ccc(OCCO)c(OC3CC3)c1)C(F)(F)F)nc2-c1ccc(F)cc1 [Compound 61]	10 to 100	< 1	< 1	
COc1cc(C(=O)NCC(O)(c2cc3c(c(-c4ccc(F)cc4)n2)OCC3(C)N)C(F)(F)F)ccc1NCCO (stereo not drawn) [Compound 30]	10 to 100	< 1	< 1	
COc1cc(C(=O)NC[C@@](O)(c2cc3c(c(-c4ccc(F)cc4)n2)OC[C@@]3(C)NC(C)=O)C(F)(F)F)ccc1OC[C@@H](C)O [Compound 85]	10 to 100	< 1	< 1	
C[C@@]1(N)COc2c1cc([C@](O)(CNC(=O)c1cc(OCCO)c3ncccc3c1)C(F)(F)F)nc2-c1ccc(F)cc1 [Compound 80]	10 to 100	< 1	< 1	
COc1cc(C(=O)NCC(O)(c2cc3c(c(-c4ccc(F)cc4)n2)OCC3(C)N)C(F)(F)F)ccc1OC(C)(C)CO (stereo not drawn) [Compound 125]	10 to 100	< 1	< 1	
C[C@@]1(N)CNc2c1cc([C@](O)(CNC(=O)c1ccc3c(c1)CC(=O)N3CCO)C(F)(F)F)nc2-c1ccc(F)cc1 [Compound 82]	> 100		< 1	< 1
COc1cc(C(=O)NCC(O)(c2cc3c(c(-c4ccc(F)cc4)n2)OCCC3(C)N)C(F)(F)F)ccc1OC[C@@H](C)O (stereo partly drawn) [Compound 103]	10 to 100	< 1	< 1	
COc1cc(C(=O)NC[C@@](O)(c2cc3c(c(-c4ccc(F)cc4)n2)OC[C@@]3(C)N)C(F)(F)F)cc2ccc(C(C)O)nc12 (stereo partly drawn) [Compound 91]	10 to 100	< 1	< 1	
COc1cc(C(=O)NC[C@@](O)(c2cc3c(c(-c4ccc(F)cc4)n2)NC[C@@]3(C)N)C(F)(F)F)ccc1OCCO (single isomer, unassigned) [Compound 51]	> 100	< 1	< 1	
COc1cc(C(=O)NC[C@@](O)(c2cc3c(c(-c4ccc(F)cc4)n2)N(C)C[C@@]3(C)N)C(F)(F)F)ccc1OCCO [Compound 79]	10 to 100	< 1	< 1	

Source: US10358453B2, “Antiviral compounds” (priority 2015, dated 2019)
